Laboratory results taken from ChEMBL document CHEMBL1143693, “Cancer chemopreventive effects of cycloartane-type and related triterpenoids in in vitro and in vivo models” (J Nat Prod, 2007).
pIC50: −log10 of the molar value.

Tests used:
Human gammaherpesvirus 4 [1] = assay: Inhibition of TPA-induced Epstein-Barr virus early antigen activation in Raji cells after 48 hrs; type: functional, organism-based; settings: human gammaherpesvirus 4, Raji
Raji = assay: Cell viability of Raji cells at 320 nM; type: functional, Homo sapiens
[2] = Scavenging activity against NO generation in human Chang liver cells assessed as inhibition of NOR1-activation at 350 nM relative to NOR1; type: functional
Human gammaherpesvirus 4 [3] = assay: Inhibition of TPA-induced Epstein-Barr virus early antigen activation assessed as EBV-EA induction in Raji cells at 32 nM after 48 hrs relative to TPA; values are per cent of control; settings: human gammaherpesvirus 4, Raji
Human gammaherpesvirus 4 [4] = assay: Inhibition of TPA-induced Epstein-Barr virus early antigen activation assessed as EBV-EA induction in Raji cells at 320 nM after 48 hrs relative to TPA; values are per cent of control; settings: human gammaherpesvirus 4, Raji
Human gammaherpesvirus 4 [5] = assay: Inhibition of TPA-induced Epstein-Barr virus early antigen activation assessed as EBV-EA induction in Raji cells at 3.2 nM after 48 hrs relative to TPA; values are per cent of control; settings: human gammaherpesvirus 4, Raji
Human gammaherpesvirus 4 [6] = assay: Inhibition of TPA-induced Epstein-Barr virus early antigen activation assessed as EBV-EA induction in Raji cells at 0.32 nM after 48 hrs relative to TPA; values are per cent of control; settings: human gammaherpesvirus 4, Raji

Compound	pIC50 (Human gammaherpesvirus 4 [1])	Activity (Raji)	Activity [2]	level, % of control at 0.032 µM (Human gammaherpesvirus 4 [3])	level, % of control at 0.32 µM (Human gammaherpesvirus 4 [4])	level, % of control at 0.0032 µM (Human gammaherpesvirus 4 [5])	level, % of control at 0.00032 µM (Human gammaherpesvirus 4 [6])
C=C(CC[C@@H](C)[C@H]1CC[C@@]2(C)[C@@H]3CC[C@H]4[C@@H](C)[C@@H](O)CC[C@@]45C[C@@]35CC[C@]12C)C(C)C	8.02	70%	1.5	29.9%	0%	72%	95.1%
C=C(CC[C@@H](C)[C@H]1CC[C@@]2(C)[C@@H]3CC[C@H]4C(C)(C)C(=O)CC[C@@]45C[C@@]35CC[C@]12C)C(C)C	8.04	70%	1.9	26.4%	3.1%	73.5%	96.1%
CC(C)CCC[C@@H](C)[C@H]1CC[C@@]2(C)[C@@H]3CC[C@H]4C(C)(C)[C@@H](O)CC[C@@]45C[C@@]35CC[C@]12C [CYCLOARTANOL]	8.03	70%	1.8	30.2%	0%	70.2%	95%
C/C(=C\C[C@@H](C)[C@H]1CC[C@@]2(C)[C@@H]3CC[C@H]4C(C)(C)[C@@H](O)CC[C@@]45C[C@@]35CC[C@]12C)C(C)C [(23E)-CYCLOSADOL]	8.00	70%	2	31.4%	0%	72.8%	95.2%
COc1cc(/C=C/C(=O)CC(=O)/C=C/c2ccc(O)c(OC)c2)ccc1O [CURCUMIN]	7.99	60%		22.8%	0%	81.7%	100%
CC(C)C(=O)CC[C@@H](C)[C@H]1CC[C@@]2(C)[C@@H]3CC[C@H]4C(C)(C)C(=O)CC[C@@]45C[C@@]35CC[C@]12C	8.05	70%	1.9	24%	0%	72.1%	96.3%
C=C(CC[C@@H](C)[C@H]1CC[C@@]2(C)[C@@H]3CC[C@H]4[C@H](C)[C@@H](OC(=O)/C=C/c5ccc(O)c(OC)c5)CC[C@@]45C[C@@]35CC[C@]12C)C(C)C [CYCLOEUCALENOL FERULATE]	7.81	70%	1.5	53.2%	14.2%	81.5%	100%
CC(=O)[C@H]1CC[C@@]2(C)[C@@H]3CC[C@H]4C(C)(C)C(=O)CC[C@@]45C[C@@]35CC[C@]12C	8.05	70%	1.5	22.1%	0%	70.3%	94.6%
C=C(C)[C@@H](CC)CC[C@@H](C)[C@H]1CC[C@@]2(C)[C@@H]3CC[C@H]4C(C)(C)[C@@H](O)CC[C@@]45C[C@@]35CC[C@]12C [POLYSTHICOL (24S)]	8.06	70%	2	28.9%	0%	69.1%	93.1%
COC(C)(C)[C@@H](O)CC[C@@H](C)[C@H]1CC[C@@]2(C)[C@@H]3CC[C@H]4C(C)(C)[C@@H](O)CC[C@@]45C[C@@]35CC[C@]12C	8.02	70%	1.8	30.7%	0%	74.5%	95.9%
CC1(C)[C@@H](O[C@H]2O[C@H](C(=O)O)[C@@H](O)[C@H](O)[C@H]2O[C@@H]2O[C@H](C(=O)O)[C@@H](O)[C@H](O)[C@H]2O)CC[C@]2(C)[C@H]3C(=O)C=C4[C@@H]5C[C@@](C)(C(=O)O)CC[C@]5(C)CC[C@@]4(C)[C@]3(C)CC[C@@H]12 [GLYCYRRHIZIN]			2.2				
C=C(CC[C@@H](C)[C@H]1CC[C@@]2(C)[C@@H]3CC[C@H]4[C@H](C)[C@@H](O)CC[C@@]45C[C@@]35CC[C@]12C)C(C)C [CYCLOEUCALENOL]	8.05	70%	1.7	26.5%	0%	68.1%	94.8%
C=C(CC[C@@H](C)[C@H]1CC[C@@]2(C)[C@@H]3CC[C@H]4[C@@H](C)C(=O)CC[C@@]45C[C@@]35CC[C@]12C)C(C)C	7.99	70%	1.5	32.7%	0%	73.6%	95.1%
CC1(C)N([O])C(c2ccc(C(=O)O)cc2)=[N+]([O-])C1(C)C			8				

Now from value to molecule, other results behind:

pIC50 (Human gammaherpesvirus 4 [1])	Compound	Activity (Raji)	Activity [2]	level, % of control at 0.032 µM (Human gammaherpesvirus 4 [3])	level, % of control at 0.32 µM (Human gammaherpesvirus 4 [4])	level, % of control at 0.0032 µM (Human gammaherpesvirus 4 [5])	level, % of control at 0.00032 µM (Human gammaherpesvirus 4 [6])
8.00	CC(C)C(C)CC[C@@H](C)[C@H]1CC[C@@]2(C)[C@@H]3CC[C@H]4[C@H](C)[C@@H](O)CC[C@@]45C[C@@]35CC[C@]12C (some centres not stated)	70%	1.6	31.8%	0%	73.4%	96.8%
8.00	CC(C)CCC[C@@H](C)[C@H]1CC[C@@]2(C)[C@@H]3CC[C@H]4[C@H](C)[C@@H](O)CC[C@@]45C[C@@]35CC[C@]12C	70%	1.5	31.5%	0%	72.6%	95.6%
8.00	CC(C)CCC[C@@H](C)[C@H]1CC[C@@]2(C)[C@@H]3CC[C@H]4C[C@@H](O)CC[C@@]45C[C@@]35CC[C@]12C [POLLINASTANOL]	70%	1.5	31.7%	0%	73.1%	95.9%
8.05	C=C(C)[C@@H](C)CC[C@@H](C)[C@H]1CC[C@@]2(C)[C@@H]3CC[C@H]4C(C)(C)[C@@H](O)CC[C@@]45C[C@@]35CC[C@]12C [CYCLOLAUDENOL (24S)]	70%	1.8	30.6%	0%	70%	93.6%
8.00	CC(C)CCC[C@@H](C)C1=CC[C@@]2(C)[C@@H]3CC[C@H]4C(C)(C)[C@@H](O)CC[C@@]45C[C@@]35CC[C@]12C	70%	1.6	32.1%	0%	72.6%	96.5%
7.90	CC1=C(/C=C/C(C)=C/C=C/C(C)=C/C=C/C=C(C)/C=C/C=C(C)/C=C/C2=C(C)CCCC2(C)C)C(C)(C)CCC1 [BETA CAROTENE]	70%		34.2%	8.6%	82.1%	100%
7.81	CC1=C(/C=C/C(C)=C/C=C/C(C)=C/C(=O)O)C(C)(C)CCC1 [TRETINOIN]	60%		49.3%	21.6%	76.3%	100%
